IC50 data for nine compounds are collected here from ChEMBL document CHEMBL2434940, “Synthesis and antitumor activities of novel α-aminophosphonates dehydroabietic acid derivatives” (Bioorg Med Chem Lett, 2013).

The first experiment concerns NCI-H460. Briefly: Cytotoxicity against human NCI-H460 cells after 48 hrs by MTT assay. It counts as functional, cell-based. Particulars: NCI-H460, 48 h.
`CCOP(=O)(OCC)C(NC(=S)NC(=O)[C@]1(C)CCC[C@]2(C)c3ccc(C(C)C)cc3CC[C@@H]12)c1cccc(C)c1` (stereo partly specified) had a 50% inhibitory concentration (IC50) of 17.8 µM.
Regarding `CCOP(=O)(OCC)C(NC(=S)NC(=O)[C@]1(C)CCC[C@]2(C)c3ccc(C(C)C)cc3CC[C@@H]12)c1ccccc1F` (stereo partly specified), the IC50 is 17.8 µM. That is a double-digit micromolar value.
Still for that read-out and setting: the figure for `CCOP(=O)(OCC)C(NC(=S)NC(=O)[C@]1(C)CCC[C@]2(C)c3ccc(C(C)C)cc3CC[C@@H]12)c1ccc(C)cc1` (stereo partly specified) is 26.4 µM.
The compound `CCOP(=O)(OCC)C(NC(=S)NC(=O)[C@]1(C)CCC[C@]2(C)c3ccc(C(C)C)cc3CC[C@@H]12)c1cccc(Cl)c1` (stereo partly specified) yielded an IC50 of 36.4 µM.
For the compound `CCOP(=O)(OCC)C(NC(=S)NC(=O)[C@]1(C)CCC[C@]2(C)c3ccc(C(C)C)cc3CC[C@@H]12)c1ccc(OC)cc1` (stereo partly specified), the half-inhibitory concentration (IC50) is 25 µM.
In the case of `CCOP(=O)(OCC)C(NC(=S)NC(=O)[C@]1(C)CCC[C@]2(C)c3ccc(C(C)C)cc3CC[C@@H]12)c1ccc(Br)cc1` (stereo partly specified), the IC50 came to 18.7 µM. The IC50 values of the last two compounds are within 1.5-fold of each other.
The same measure, in the same setting: the result for `CCOP(=O)(OCC)C(NC(=S)NC(=O)[C@]1(C)CCC[C@]2(C)c3ccc(C(C)C)cc3CC[C@@H]12)c1ccc2ccccc2c1` (stereo partly specified) reads 22.7 µM; that for `CCOP(=O)(OCC)C(NC(=S)NC(=O)[C@]1(C)CCC[C@]2(C)c3ccc(C(C)C)cc3CC[C@@H]12)c1cccc(Br)c1` (stereo partly specified), 14.8 µM.
The same measure, in the same setting: the result for `CCOP(=O)(OCC)C(NC(=S)NC(=O)[C@]1(C)CCC[C@]2(C)c3ccc(C(C)C)cc3CC[C@@H]12)c1ccc(Cl)cc1` (stereo partly specified) reads 19.7 µM.

The subject of another experiment is A549. The experiment is described as follows: Cytotoxicity against human A549 cells after 48 hrs by MTT assay. Particulars: A549, 48 h. It counts as functional, cell-based.
The compound `CCOP(=O)(OCC)C(NC(=S)NC(=O)[C@]1(C)CCC[C@]2(C)c3ccc(C(C)C)cc3CC[C@@H]12)c1cccc(C)c1` (stereo partly specified) gave an IC50 of 18.8 µM. This counts as double-digit micromolar.
Consider `CCOP(=O)(OCC)C(NC(=S)NC(=O)[C@]1(C)CCC[C@]2(C)c3ccc(C(C)C)cc3CC[C@@H]12)c1ccccc1F` (stereo partly specified), for which half-maximal inhibition (IC50) required 14 µM.
Consider `CCOP(=O)(OCC)C(NC(=S)NC(=O)[C@]1(C)CCC[C@]2(C)c3ccc(C(C)C)cc3CC[C@@H]12)c1ccc(C)cc1` (stereo partly specified), for which 21.9 µM corresponded to half-maximal inhibition (IC50).
Compound `CCOP(=O)(OCC)C(NC(=S)NC(=O)[C@]1(C)CCC[C@]2(C)c3ccc(C(C)C)cc3CC[C@@H]12)c1cccc(Cl)c1` (stereo partly specified) came in with a 50% inhibitory concentration (IC50) of 26.4 µM. The IC50 values of the last two compounds are within 1.5-fold of each other.
On to `CCOP(=O)(OCC)C(NC(=S)NC(=O)[C@]1(C)CCC[C@]2(C)c3ccc(C(C)C)cc3CC[C@@H]12)c1ccc(OC)cc1` (stereo partly specified), for which the IC50 came to 15.3 µM.
As to `CCOP(=O)(OCC)C(NC(=S)NC(=O)[C@]1(C)CCC[C@]2(C)c3ccc(C(C)C)cc3CC[C@@H]12)c1ccc(Br)cc1` (stereo partly specified), the IC50 was found to be 20.2 µM.
`CCOP(=O)(OCC)C(NC(=S)NC(=O)[C@]1(C)CCC[C@]2(C)c3ccc(C(C)C)cc3CC[C@@H]12)c1ccc2ccccc2c1` (stereo partly specified): the IC50 came to 45.7 µM.
Turning to `CCOP(=O)(OCC)C(NC(=S)NC(=O)[C@]1(C)CCC[C@]2(C)c3ccc(C(C)C)cc3CC[C@@H]12)c1cccc(Br)c1` (stereo partly specified), the IC50 is 19.5 µM. This IC50 is about 2.3-fold lower than that of the compound before.
In turn, `CCOP(=O)(OCC)C(NC(=S)NC(=O)[C@]1(C)CCC[C@]2(C)c3ccc(C(C)C)cc3CC[C@@H]12)c1ccc(Cl)cc1` (stereo partly specified) returned an IC50 of 12.7 µM.

The test system of another experiment is HepG2. Briefly: Cytotoxicity against human HepG2 cells after 48 hrs by MTT assay. It counts as functional, cell-based. Particulars: HepG2, 48 h.
Turning to `CCOP(=O)(OCC)C(NC(=S)NC(=O)[C@]1(C)CCC[C@]2(C)c3ccc(C(C)C)cc3CC[C@@H]12)c1cccc(C)c1` (stereo partly specified), the IC50 amounted to 37.3 µM.
In turn, `CCOP(=O)(OCC)C(NC(=S)NC(=O)[C@]1(C)CCC[C@]2(C)c3ccc(C(C)C)cc3CC[C@@H]12)c1ccccc1F` (stereo partly specified) had an IC50 of 11.4 µM.
With `CCOP(=O)(OCC)C(NC(=S)NC(=O)[C@]1(C)CCC[C@]2(C)c3ccc(C(C)C)cc3CC[C@@H]12)c1ccc(C)cc1` (stereo partly specified), 30 µM corresponded to half-maximal inhibition (IC50).
`CCOP(=O)(OCC)C(NC(=S)NC(=O)[C@]1(C)CCC[C@]2(C)c3ccc(C(C)C)cc3CC[C@@H]12)c1cccc(Cl)c1` (stereo partly specified) yielded an IC50 of over 50 µM.
`CCOP(=O)(OCC)C(NC(=S)NC(=O)[C@]1(C)CCC[C@]2(C)c3ccc(C(C)C)cc3CC[C@@H]12)c1ccc(OC)cc1` (stereo partly specified) returned an IC50 of 32.1 µM. In other words, the double-digit micromolar range.
In turn, `CCOP(=O)(OCC)C(NC(=S)NC(=O)[C@]1(C)CCC[C@]2(C)c3ccc(C(C)C)cc3CC[C@@H]12)c1ccc(Br)cc1` (stereo partly specified) had an IC50 of 24 µM. The IC50 values of the last two compounds are within 1.5-fold of each other.
Turning to `CCOP(=O)(OCC)C(NC(=S)NC(=O)[C@]1(C)CCC[C@]2(C)c3ccc(C(C)C)cc3CC[C@@H]12)c1ccc2ccccc2c1` (stereo partly specified), the half-inhibitory concentration (IC50) is over 50 µM.
On to `CCOP(=O)(OCC)C(NC(=S)NC(=O)[C@]1(C)CCC[C@]2(C)c3ccc(C(C)C)cc3CC[C@@H]12)c1cccc(Br)c1` (stereo partly specified), for which 15.2 µM corresponded to half-maximal inhibition (IC50).
The compound `CCOP(=O)(OCC)C(NC(=S)NC(=O)[C@]1(C)CCC[C@]2(C)c3ccc(C(C)C)cc3CC[C@@H]12)c1ccc(Cl)cc1` (stereo partly specified) had an IC50 of 26.5 µM.

The next experiment has as its system SK-OV-3. The experiment is described as follows: Cytotoxicity against human SKOV3 cells after 48 hrs by MTT assay. It counts as functional, cell-based. Particulars: SK-OV-3, 48 h.
In turn, `CCOP(=O)(OCC)C(NC(=S)NC(=O)[C@]1(C)CCC[C@]2(C)c3ccc(C(C)C)cc3CC[C@@H]12)c1cccc(C)c1` (stereo partly specified) registered a concentration for half-maximal inhibition (IC50) of 16.6 µM.
With `CCOP(=O)(OCC)C(NC(=S)NC(=O)[C@]1(C)CCC[C@]2(C)c3ccc(C(C)C)cc3CC[C@@H]12)c1ccccc1F` (stereo partly specified), the half-maximal inhibitory concentration (IC50) is 10 µM.
With `CCOP(=O)(OCC)C(NC(=S)NC(=O)[C@]1(C)CCC[C@]2(C)c3ccc(C(C)C)cc3CC[C@@H]12)c1ccc(C)cc1` (stereo partly specified), the concentration for half-maximal inhibition (IC50) was 14.1 µM. This IC50 and that of the compound before are within 1.5-fold of each other.
Compound `CCOP(=O)(OCC)C(NC(=S)NC(=O)[C@]1(C)CCC[C@]2(C)c3ccc(C(C)C)cc3CC[C@@H]12)c1cccc(Cl)c1` (stereo partly specified) displayed a half-maximal inhibitory concentration (IC50) of 19.7 µM.
`CCOP(=O)(OCC)C(NC(=S)NC(=O)[C@]1(C)CCC[C@]2(C)c3ccc(C(C)C)cc3CC[C@@H]12)c1ccc(OC)cc1` (stereo partly specified) displayed an IC50 of 21.4 µM.
`CCOP(=O)(OCC)C(NC(=S)NC(=O)[C@]1(C)CCC[C@]2(C)c3ccc(C(C)C)cc3CC[C@@H]12)c1ccc(Br)cc1` (stereo partly specified) had a half-inhibitory concentration (IC50) of 14 µM. Against the preceding compound, the IC50 is about 1.5-fold lower.
Take `CCOP(=O)(OCC)C(NC(=S)NC(=O)[C@]1(C)CCC[C@]2(C)c3ccc(C(C)C)cc3CC[C@@H]12)c1ccc2ccccc2c1` (stereo partly specified): the IC50 is over 50 µM.
On to `CCOP(=O)(OCC)C(NC(=S)NC(=O)[C@]1(C)CCC[C@]2(C)c3ccc(C(C)C)cc3CC[C@@H]12)c1cccc(Br)c1` (stereo partly specified), for which the IC50 came out at 20.7 µM.
The compound `CCOP(=O)(OCC)C(NC(=S)NC(=O)[C@]1(C)CCC[C@]2(C)c3ccc(C(C)C)cc3CC[C@@H]12)c1ccc(Cl)cc1` (stereo partly specified) had a 50% inhibitory concentration (IC50) of 14.5 µM.
